Test results as given in US20250339569A1, “CARBONIC ANHYDRASE IX LIGANDS” (priority 2021, published 2025).
Like-named read-outs stand apart in the source and are kept apart here. Starred links: 1 amine or outer side, 2 acyl side, 3 side chain; linkers in the order of their positions; H or OH if unused. Positions of bridges follow the written chain, without caps; N, C: chain ends. Non-standard residues stand in square brackets, D forms with d. Residues, ends and D or L forms follow the SMILES beside them. *: point of attachment. Phe(3-NHCO(CH2)3SO2NH2) = N[C@@H](Cc1cccc(NC(=O)CCCS(N)(=O)=O)c1)C(=O)O; DOTA = O=C(O)CN1CCN(CC(=O)O)CCN(CC(=O)*)CCN(CC(=O)O)CC1; mXylylene = c1cc(C[*:1])cc(C[*:2])c1; X2 = O=C(CN1CCC(N[*:1])CC1)[*:2]; Dap = NC[C@H](N)C(=O)O

Legend:
[1] = human, plasma
[2] = mouse, plasma, 24 h
[3] = target: T1, CAIX-expressing human HT-29 colorectal cancer cells (Homo sapiens, UniProt Q16790); test: FACS binding assay (IC50 determination, competition with tracer 3BP-2776 or 3BP-4149); conditions: 4° C., 1 hour, read-out: pIC50 category (activity) (converted)
T1 construct: CAIX-expressing human HT-29 colorectal cancer cells; host or cells: HT-29 human colorectal cancer cells
Method in brief: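 HT-29 cells in FACS buffer (PBS, 1% FCS) at 500.000 cells/ml were exposed to compounds competing with a labelled tracer, with biotinylated compounds detected by 1 μg/mL APC-streptavidin for 30 min on ice. APC/Cy5 median fluorescence was read by flow cytometry and IC50 derived by 4PL fit.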

dog CAIX = test: Radioligand binding assay, 111In-labeled compounds, CHO-VGT cells with dog CAIX; conditions: 111In-labeled compound, 8 h at 37°C
Protocol: (§1) In order to assess the affinity of ^111In-labeled compounds to CAIX of different species, a radioligand binding assay was established.
(§2) CHO-VGT cells were transfected with the human, dog, and mouse CAIX (InSCREENex GmbH) and cultured in Ham's F-12 medium (Sigma-Aldrich #N4888) supplemented with 10% fetal bovine serum (FCS), 2 mM L-glutamine, 100 U/mL Penicillin, and 0.1 mg/mL streptomycin. Cells were detached with Accutase (Biolegend #423201) and counted using a particle counter (CASY Model TT; Scharfe Systems, Germany). Cell concentrations were adjusted to 3×10^5 mL^−1, and 1.000 μL of the suspension per well were dispensed into flat-clear-bottom 24 well plates.
(§3) Approximately 24 hours after re-seeding, the medium was aspirated and the cells were washed once with 1000 μL assay medium (Ham's medium without additives). To determine total binding, 700 μL of assay medium and 100 μL of the radioligand dilutions were added to the wells in triplicates. To determine non-specific binding, 600 μL of binding medium, 100 μL of the radioligand dilutions and 100 μL of a blocking solution containing 8 μM non-labeled compound were added to the wells in triplicates. At the end of incubation time (8 h at 37° C.), cells were washed and subsequently harvested in 300 μL RIPA buffer (Thermo Scientific #89901) containing Protease Inhibitor Cocktail Set I (Calbiochem #539131). Radioactivity of the cell lysate of each well was counted using a gamma counter (1470 Wizard, PerkinElmer, USA). An aliquot of each radioligand dilution was included in the gamma counter measurements to allow for determination of their actual concentrations via their known specific activity.

[4] = Plasma stability assay, human plasma; conditions: 37°C
CAXII (hCAXII-bio) = target: T2, CAXII (hCAXII-bio) (Homo sapiens, UniProt O43570); test: SPR selectivity assay with biotinylated CAXII; type: binding; conditions: SPR, biotinylated CAXII; read-out: pKD category (affinity) CAXII (converted)
T2 construct: purchased SinoBliological (Sino Biological) 10617-H08H
Protocol: (§4) In order to test selectivity of CAIX-binding peptides toward CAIV (SinoBliological, Cat #10472-1H081H), CAXII (SinoBliological, Cat #10617-H08H or CAXIV (SinoBliological, Cat #10458-H08H), SPR assays were performed analog to the assay described above but with a different target capture procedure. For immobilization, the carbonic anhydrases were biotinylated and capture on the SPR chip using the Biotin CAPture Kit (cytiva) according to the manufacturer instructions using HBSTE, 0.1% as Running Buffer.
(§5) Table 13 describes the protocol steps for biotinylated target capturing and assessment of the binding kinetics.

mouse CAIX = target: T3, mouse CAIX (Mus musculus, UniProt Q8VHB5); test: Radioligand binding assay, 111In-labeled compounds, CHO-VGT cells with mouse CAIX; conditions: 111In-labeled compound, Mouse CAIX, 8 h at 37°C; read-out: pKD category (activity) (converted)
T3 construct: host or cells: CHO-VGT / CHO cells
Protocol: as §1, §2, §3

[5] = target: T4, human carbonic anhydrase IX (hCAIX-Fc) (Homo sapiens, UniProt Q16790); test: Surface plasmon resonance assay with hCAIX-Fc; type: binding; conditions: for t1/2 category (activity): SPR dissociation half-life, hCAIX-Fc
T4 construct: purchased SinoBliological (Sino Biological) 10107-H02H

CAIV (hCAIV-bio) = target: T5, CAIV (hCAIV-bio) (Homo sapiens, UniProt P22748); test: SPR selectivity assay with biotinylated CAIV; type: binding; conditions: SPR, biotinylated CAIV; read-out: pKD category (affinity) CAIV (converted)
T5 construct: purchased SinoBliological (Sino Biological) 10472-1H081H
Protocol: as §4, §5

[6] = target: T6, Recombinant soluble human NEP (Homo sapiens, UniProt P08473); test: Proteolytic stability assay against NEP; type: in vitro ADME; conditions: 100 ng/mL NEP, 10 μM compound, 37°C
T6 construct: Recombinant soluble human NEP; purchased BioTechne, Wiesbaden, Germany
Protocol: To assess the stability of compounds against NEP, the compounds were subjected to an in vitro assay based on the protocol described by Edelson et al. (Edelson et al., Pulmonary pharmacology & therapeutics, 2013, 26, 229-238).
Recombinant soluble human NEP (BioTechne, Wiesbaden, Germany) at a concentration of 100 ng/mL was mixed with the compound (10 μM) and a stable internal standard (10 μM) and incubated at 37° C. After several time points, samples were taken and analyzed with LC-MS.
The activity of NEP was examined using a commercially available chromogenic substrate of NEP.

[7] = Plasma stability assay, mouse plasma; conditions: mouse plasma, 37°C, 24 h
CAXIV (hCAXIV-bio) = target: T7, CAXIV (hCAXIV-bio) (Homo sapiens, UniProt Q9ULX7); test: SPR selectivity assay with biotinylated CAXIV; type: binding; conditions: SPR, biotinylated CAXIV; read-out: pKD category (affinity) CAXIV (converted)
T7 construct: purchased SinoBliological (Sino Biological) 10458-H08H
Protocol: as §4, §5

in vitro [8] = conditions: human, plasma
in vitro [9] = conditions: mouse, plasma
human CAIX = human CAIX (Homo sapiens, UniProt Q16790); test: Radioligand binding assay, 111In-labeled compounds, CHO-VGT cells with human CAIX; parameters: host or cells: CHO-VGT / CHO cells; conditions: 111In-labeled compound, Human CAIX, 8 h at 37°C; read-out: pKD category (activity) (converted)
Protocol: as §1, §2, §3

T7 sequence (Q9ULX7 16-337): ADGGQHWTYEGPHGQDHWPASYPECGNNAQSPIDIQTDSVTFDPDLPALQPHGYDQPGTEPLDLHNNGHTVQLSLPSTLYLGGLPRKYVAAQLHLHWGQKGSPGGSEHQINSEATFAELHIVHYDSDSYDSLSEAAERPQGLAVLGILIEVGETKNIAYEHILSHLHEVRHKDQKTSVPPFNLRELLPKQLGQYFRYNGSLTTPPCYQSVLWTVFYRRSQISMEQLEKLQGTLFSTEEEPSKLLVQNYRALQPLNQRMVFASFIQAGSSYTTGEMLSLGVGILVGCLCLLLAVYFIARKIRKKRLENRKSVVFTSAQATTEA
T3 sequence (Q8VHB5 32-437): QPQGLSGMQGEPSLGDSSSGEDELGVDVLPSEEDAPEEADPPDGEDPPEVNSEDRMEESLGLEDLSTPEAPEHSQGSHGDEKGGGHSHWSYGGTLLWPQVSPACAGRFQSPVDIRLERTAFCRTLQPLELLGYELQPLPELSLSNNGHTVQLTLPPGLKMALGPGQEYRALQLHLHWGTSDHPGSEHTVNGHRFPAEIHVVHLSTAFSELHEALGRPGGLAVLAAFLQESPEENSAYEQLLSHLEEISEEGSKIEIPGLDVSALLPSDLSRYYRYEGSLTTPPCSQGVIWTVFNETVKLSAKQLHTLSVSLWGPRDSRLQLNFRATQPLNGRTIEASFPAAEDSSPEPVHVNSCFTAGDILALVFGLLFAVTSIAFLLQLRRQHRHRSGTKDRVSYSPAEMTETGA
T5 sequence (P22748 19-284): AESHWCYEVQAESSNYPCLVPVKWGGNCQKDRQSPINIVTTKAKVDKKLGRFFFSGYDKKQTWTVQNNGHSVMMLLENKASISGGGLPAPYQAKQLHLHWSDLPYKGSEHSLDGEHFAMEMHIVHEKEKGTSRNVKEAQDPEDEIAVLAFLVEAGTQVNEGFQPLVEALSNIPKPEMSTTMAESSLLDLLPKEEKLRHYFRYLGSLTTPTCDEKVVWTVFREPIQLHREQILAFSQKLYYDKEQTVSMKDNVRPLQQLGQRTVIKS
T2 sequence (O43570 25-354): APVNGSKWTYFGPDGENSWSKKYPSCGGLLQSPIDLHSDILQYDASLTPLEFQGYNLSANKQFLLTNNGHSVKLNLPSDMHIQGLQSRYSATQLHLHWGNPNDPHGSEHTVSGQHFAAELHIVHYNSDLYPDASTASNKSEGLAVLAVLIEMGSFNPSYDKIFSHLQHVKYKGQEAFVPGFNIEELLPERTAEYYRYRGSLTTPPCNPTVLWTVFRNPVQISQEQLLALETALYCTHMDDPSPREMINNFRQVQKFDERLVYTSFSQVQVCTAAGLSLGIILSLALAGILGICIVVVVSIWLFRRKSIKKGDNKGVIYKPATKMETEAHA
T6 sequence (P08473 52-750 limits assumed): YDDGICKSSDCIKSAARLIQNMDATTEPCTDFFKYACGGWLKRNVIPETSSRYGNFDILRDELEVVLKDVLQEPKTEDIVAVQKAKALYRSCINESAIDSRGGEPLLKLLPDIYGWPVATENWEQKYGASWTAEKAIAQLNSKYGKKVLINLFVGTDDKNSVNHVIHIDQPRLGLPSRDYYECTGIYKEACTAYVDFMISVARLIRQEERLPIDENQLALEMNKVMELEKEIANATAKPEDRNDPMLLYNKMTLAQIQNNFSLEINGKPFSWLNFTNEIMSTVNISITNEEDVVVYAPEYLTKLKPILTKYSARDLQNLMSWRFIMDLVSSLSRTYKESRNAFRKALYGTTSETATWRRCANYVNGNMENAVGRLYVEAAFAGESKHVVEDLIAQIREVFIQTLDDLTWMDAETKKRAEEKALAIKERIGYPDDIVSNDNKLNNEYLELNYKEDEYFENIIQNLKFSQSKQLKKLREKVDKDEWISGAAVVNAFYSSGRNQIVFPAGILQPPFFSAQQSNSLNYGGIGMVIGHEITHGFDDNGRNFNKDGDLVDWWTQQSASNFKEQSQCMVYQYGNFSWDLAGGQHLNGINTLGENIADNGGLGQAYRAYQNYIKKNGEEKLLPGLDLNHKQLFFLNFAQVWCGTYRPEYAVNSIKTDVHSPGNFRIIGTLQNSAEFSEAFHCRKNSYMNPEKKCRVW

| Structure (SMILES) | % intact compound remaining after 24 h incubation [1] [%] | % intact compound remaining (incubation time) [2] [%] | IC50 ([3]; FACS competition on HT-29 cells, Tracer ID 3BP-2776 (10 nM, biotin-labeled)) [nM] | pKD category (activity) (dog CAIX) | % intact compound remaining after 24 h incubation [4] [%] | Kd (CAXII (hCAXII-bio)) [nM] | Kd (mouse CAIX) [nM] | t1/2 category (activity) ([5]; 25° C.) | Kd (CAIV (hCAIV-bio)) [nM] | % intact compound remaining after 24 h incubation [6] [%] | % intact compound remaining (incubation time) [7] [%] | Kd (CAXIV (hCAXIV-bio)) [nM] | IC50 ([3]; FACS binding assay, HT-29 cells, competition with tracer 3BP-2776 (10 nM, biotin-labeled)) [nM] | remaining at 24 h, […] (in vitro [8]) [%] | remaining at 24 h, […] (in vitro [9]) [%] | pKD category (affinity) CAIX ([5]; SPR, hCAIX) | Kd ([5]; SPR, hCAIX-Fc captured, 25° C., read-out: pKD category (activity) (converted)) [nM] | Kd (human CAIX) [nM] |
| --- | --- | --- | --- | --- | --- | --- | --- | --- | --- | --- | --- | --- | --- | --- | --- | --- | --- | --- |
| CC(C)C[C@@H]1NC(=O)[C@H](Cc2ccc(NC(=O)CCS(N)(=O)=O)cc2)NC(=O)[C@H](CC(=O)O)NC(=O)[C@H]2CCCN2C(=O)[C@H](CCC(=O)O)NC(=O)[C@@H](NC(=O)[C@H](CCC(N)=O)NC(=O)CN2CCN(CC(=O)O)CCN(CC(=O)O)CCN(CC(=O)O)CC2)CSCc2cccc(c2)CSC[C@@H](C(N)=O)NC(=O)[C@H](CO)NC(=O)[C@H](Cc2c[nH]c3ccccc23)NC(=O)[C@H]([C@@H](C)O)NC1=O (natLu complex, metal not drawn) [3BP-4581] | >95 | >95 | – | – | – | – | – | – | – | – | – | – | – | – | – | – | – | – |
| CC(C)C[C@@H]1NC(=O)[C@H](Cc2c[nH]c3ccccc23)NC(=O)[C@H](CC(=O)O)NC(=O)[C@H]2CCCN2C(=O)[C@H](CCC(=O)O)NC(=O)[C@@H](NC(=O)[C@H](Cc2ccc(O)cc2)NC(=O)[C@@H](NC(=O)CN2CCC(NC(=O)CN3CCN(CC(=O)O)CCN(CC(=O)O)CCN(CC(=O)O)CC3)CC2)C(C)C)CSCc2cccc(c2)CSC[C@@H](C(N)=O)NC(=O)[C@H](CO)NC(=O)[C@H](Cc2c[nH]c3ccccc23)NC(=O)[C@H]([C@@H](C)O)NC1=O [3BP-3583, DOTA-APAc-Val-Tyr-[Cys(3MeBn)-Glu-pro-Asp-Trp-Leu-Thr-Trp-Ser-Cys]-NH2] ({DOTA}-[X2]VYCE[dP]DWLTWSC-NH2; linker 4-13 via mXylylene) | – | – | < 10 | A (pKD values >8.0) | 71 | > 1000 | 100 to 794 | A (t1/2>15.0 minutes) | > 1000 | >95 | 79 | > 1000 | – | – | – | – | – | – |
| CC(C)C[C@@H]1NC(=O)[C@H](Cc2cccc(NC(=O)CCCS(N)(=O)=O)c2)NC(=O)[C@H](CC(=O)O)NC(=O)[C@H]2CCCN2C(=O)[C@H](CCC(=O)O)NC(=O)[C@@H]2CSCc3cccc(c3)CSC[C@@H](C(N)=O)NC(=O)[C@H](CNC(=O)CC[C@H](NC(=O)CN3CCN(CC(=O)O)CCN(CC(=O)O)CCN(CC(=O)O)CC3)C(=O)N2)NC(=O)[C@H](Cc2c[nH]c3ccccc23)NC(=O)[C@H]([C@@H](C)O)NC1=O [3BP-4503, DOTA-{Glu-[Cys(3MeBn)-Glu-pro-Asp-Af3(Cpsu)-Leu-Thr-Trp-Dap}-Cys]-NH2] ({DOTA}-ECE[dP]D[Phe(3-NHCO(CH2)3SO2NH2)]LTW[Dap]C-NH2; lactam 1-10; linker 2-11 via mXylylene) | – | – | – | A (pKD values >8.0) | – | > 1000 | < 10 | A (t1/2>15.0 minutes) | > 1000 | – | – | > 1000 | < 10 | > 95 | > 95 | A (pKD values >8.0) | < 10 | < 10 |
